The values below come from patent publication US20090264342A1, “COMPOSITIONS AND METHODS FOR ANTIBIOTIC POTENTIATION AND DRUG DISCOVERY” (priority 2006, published 2009).

Format in all cases: cell-based
One assay relates to S. aureus strain RN4220. Nature of the assay: MIC of Nor for S. aureus RN4220 and RN4220 recA−. Conditions: Staphylococcus aureus. On the procedure: The growth and response to quinolone of S. aureus strain RN4220 (wild type) and its recA^− derivative (RN4220 recA^−) were first examined. These strains have been described in the literature (Bayles et al., 1994). The RN4220 recA null mutant (RN4220 recA^−) contains the recA569 allele and is referred to KB103 in Bayles, et al., 1994. […] MICs were determined as described above.
Further details of the assay are as follows: Overnight mutant MG1655 or Staph cultures of clones were grown in 5 mL of LB with appropriate selective agents at 37° C. with shaking. A morning culture was started in a 96 well plate with 16 μL of cells into 1.6 mL of LB and the appropriate plasmid selective agent. […] Serial dilutions were done with 100 μL of drug into 100 μL of H2O. […] 20 μL of each log phase culture was put into a well of one row of a 96 well plate containing […] of LB and the appropriate selective agent. 4.5 μL of each drug concentration was arrayed into the 8 rows of a sterile 300 μL 96-well plate. 250 μL of inoculated culture was added to each column of the sterile 300 μL 96-well plate with drug. The final plate has a different clone in each column and a different Norfloxacin concentration in each row. Plates were grown overnight at 37° C. with shaking. The OD600 of the plate was measured after 16 hours.

In assay [1] the test system is S. aureus strains wt, recAmut, grlA542, grlA542recAmut. Nature of the assay: MIC for S. aureus wt, recAmut, grlA542 and grlA542recAmut strains. The conditions noted are these: Staphylococcus aureus.
A further assay has as its system wild type E. coli. Nature of the assay: Growth of wild type E. coli in the presence of quinolone (OD600). An excerpt: Each deletion strain was constructed by replacing the chromosomal copy of the relevant gene in a wild type E. coli strain (K-12) with a selectable antibiotic resistance gene, essentially as described, to create a precise gene deletion (Datsenko, K. A. and Wanner, B. L., “One-step inactivation of chromosomal genes in Escherichia coli K-12 using PCR products”, Proc Natl Acad Sci USA, 97, 6640-6645, […]); Baba, T., Ara, T., Okumura, Y., iki Hasegawa, M., Takai, Y., Baba, M., Oshima, T., Tomita, M., Wanner, B. and Mori, H. (2003) Systematic construction of single gene deletion mutants in Escherichia coli K-12 (in preparation) and see also the web site at ecoli.aist-nara.ac.jp/gb5/Resources/deletion/deletion.html).
For each mutant, the ratio of growth of the mutant in the presence of a sublethal concentration of quinolone to growth of the mutant in the absence of quinolone was calculated after 12 hours of growth at 37° C., based on OD600 measurements. […]

For a further assay, the system named is E. coli MG1655. Nature of the assay: Hydroxyl radical formation (HPF dye, flow cytometry) in E. coli. The conditions noted are these: E. coli; 250 ng/mL norfloxacin, 5 μg/mL ampicillin, 5 μg/mL kanamycin; bacteriostatic drugs; 3 hours after addition. On the procedure: (§1) Growth Conditions. In the experiments, the growth and survival of untreated exponential phase E. coli, or S. aureus, were compared to cultured treated with antibiotics at the above concentrations. E. coli cultures were treated with norfloxacin, kanamycin, ampicillin, rifamycin SV, chloramphenical, tetracycline, erythromycin, or spectinomycin, where appropriate, S. aureus cultures were treated with norfloxacin, vancomycin or chloramphenical, where appropriate.
(§2) Hydroxyl radical and DNA damage sensor experiments using the flow cytometer. To monitor the occurrence of DNA damage, the engineered DNA damage sensor was used, which responds to auto-cleavage of LexA by activating expression of gfpmut3b. All the drug treatments and the no-drug controls were collected with both the kanamycin- and ampicillin-resistant version of the plasmid, with the exception of the ampicillin treatment (kanamycin plasmid only) and the kanamycin treatment (ampicillin plasmid only). All data were collected using a Becton Dickinson FACSCalibur flow cytometer (Becton Dickinson, San Jose, Calif.) with a 488-nm argon laser and a 515- to 545-nm emission filter (FL1) at low flow rate. The following PMT voltage settings were used: E00 (FSC), 360 (SSC) and 700 (FL1). To detect hydroxyl radical formation, the fluorescent reporter dye, 3′-(p-hydroxyphenyl) fluorescein (HPF, Invitrogen, Carlsbad, Calif.) was used at a concentration of 5 μM (1:1000) dilution), which is oxidized by hydroxyl radicals with high specificity. The following PMT voltage settings were used: E00 (FSC), 360 (SSC) and 825 (FL 1). Calibrite beads (Becton Dickinson) were used for instrument calibration.
Flow data were processed and analyzed with MATLAB (MathWorks, Natick, Mass.) to construct figures. At least 50,000 cells were collected for each sample. In all experiments, cells were grown as described above. Samples were taken immediately before addition of drug (time zero), then every hour for 3 hours. At each timepoint, approximately […] were collected, washed once and resuspended in filtered 1×PBS, pH 7.2 (Fisher Scientific), and fluorescence was measured on the flow cytometer.
In the present study, the Applicants chose to investigate whether hydroxyl radical formation also contributes to antibiotic-induced cell death in bacteria. Using the dye hydroxyphenyl fluorescein, HPF, which is oxidized by hydroxyl radicals with high specificity, hydroxyl radical formation was first observed over a range of hydrogen peroxide concentrations known to induce hydroxyl radicals through the reduction of hydrogen peroxide by ferrous iron. In this manner, it was possible to establish the scale of hydroxyl radical formation detectable using this dye via flow cytometry.

The test system of assay [2] is S. aureus RN4220 and RN4220 recA−. The assay can be described thus: Survival assay in the RN4220 background after exposure to Nor. The conditions noted are these: RN4220 recA− vs RN4220, 3 hours of exposure to Nor 0.5 μg/mL. The method, then: The survival ability of RN4220 and RN4220 recA^− following exposure to Nor was then tested as described in Example 2 for E. coli strains. The recA null mutant and parental strains (RN4220 recA^− and RN4220, respectively) were grown to early log phase in LB at 37° C. with shaking. At the 0 time point Nor was added to the cultures to a final concentration of 0.5 μg/mL, which is just below the MIC for wild type cells (RN4220). Samples of the cells were collected and washed in PBS at 0, 30, 90 and 180 minutes time points. The number of viable cells was determined by plating the cells on LB from each time point and counting colonies. The CFU counts were normalized based on the time 0 time point inoculum for each culture (i.e., the CFU count obtained from the 0 time point inoculum was taken to represent 100% survival) and the log % survival was plotted (FIG. 5).
It was concluded that recA is essential for survival in the presence of quinolones (FIG. 5). As in E. coli, recA deletion causes 10,000× increase in quinolone sensitivity compared to the parental strain after 3 hours of exposure to Nor.

Assay [3] has as its system wild-type strain of S. aureus. The assay can be described thus: Hydroxyl radical formation (HPF dye, flow cytometry) in S. aureus. The conditions noted are these: norfloxacin, chloramphenical. The method, then: For work with S. aureus, a Staphylococcus aureus subspecies aureus Rosenback strain was used that was obtained from ATCC (29740).
as §1, §2
(In flow cytometry, cells or beads pass a laser one at a time.)

As usually defined, the MIC is the smallest concentration in the dilution series that meets the test's criterion for growth inhibition.

≈ marks a conversion by molar mass, not a printed value.

With `CCn1cc(C(=O)O)c(=O)c2cc(F)c(N3CCNCC3)cc21` [Nor, norfloxacin], the minimal inhibitory concentration (MIC) turned out to be 1.53 µg/mL in the assay on S. aureus strain RN4220 (RN4220, RN4220); 0.38 µg/mL with S. aureus strain RN4220 (RN4220, RN4220 recA−); 12.5 µg/mL (≈ 39.1 µM) in assay [1] (strain grlA542 (quinolone resistant)); 1.56 µg/mL (≈ 4.89 µM) in assay [1] (strain grlA542recAmut); 0.19 µg/mL (≈ 0.595 µM) in assay [1] (strain recAmut); 0.78 µg/mL (≈ 2.44 µM) in assay [1] (strain wt). In addition, the “bacterial growth, % of wild type levels” value in the assay with wild type E. coli (0.05 μg/mL Nor (sublethal concentration)) came out at 80%. Moreover, the “concentration that fully inhibits growth of wild type E. coli (lethal concentration)” value in the assay with wild type E. coli (wild type E. coli) amounted to 0.1 µg/mL. For the same compound, the hydroxyl radical formation result is given as “induce hydroxyl radical formation” with E. coli MG1655 and “increase in hydroxyl radical production” in assay [3]. Besides, in assay [2], the “increase in quinolone sensitivity caused by recA deletion compared to parental strain” value is 10,000 ×.
